Non-standard residues stand in square brackets, D forms with d. Residues, ends and D or L forms follow the SMILES beside them. *: point of attachment. Gly(N-(3-decanoyloxypropyl)) = CCCCCCCCCC(=O)OCCCNCC(=O)O; N(3-lauroyloxypropyl)Gly = CCCCCCCCCCCC(=O)OCCCNCC(=O)O; N(2-decanoyloxyethyl)Gly = CCCCCCCCCC(=O)OCCNCC(=O)O; N(3-imidazol-1-ylpropyl)Gly = O=C(O)CNCCCn1ccnc1; Gly(N-3-morpholinopropyl) = O=C(O)CNCCCN1CCOCC1; N(2-ethylhexyl)Gly = CCCCC(CC)CNCC(=O)O; Gly(N-dodecyl) = CCCCCCCCCCCCNCC(=O)O; N(octyl)Gly = CCCCCCCCNCC(=O)O; For = O=C*
What was measured:
[1] = Delivery vehicle size and polydispersity by dynamic light scattering; format: physicochemical
Procedure, shortened: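 Dynamic light scattering in PBS gave size and polydispersity of peptoid LNPs. These were dialyzed overnight at 4 °C into tris-sucrose buffer pH 7.4 after microfluidic 1:3 volume mixing of mRNA in pH 5.0 citrate with ethanol lipids (peptoid:DSPC:cholesterol:DMG-PEG2000 20:1.79:7.16:1.84 w/w).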

mRNA = mRNA encapsulation (modified Quant-iT RiboGreen assay); format: physicochemical; conditions: for mean percent encapsulation of RNA: RiboGreen, without vs with Triton X-100; for % Encapsulation: mRNA
Procedure, shortened: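 Encapsulated fraction was calculated by comparing RiboGreen signal (excitation 485 nm, emission 530 nm) of intact particles with that of particles lysed by a 10-min Triton X-100 treatment. Total mRNA concentration was taken from the lysed samples.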

firefly luciferase = assay: In vivo firefly luciferase expression after intravenous injection of fLuc mRNA delivery vehicles (IVIS imaging); set-up: species or system female Balb/c mice; conditions: for Total Flux (luciferase expression): fLuc mRNA, intravenous, Balb/c mice; for Total Flux: mice, 2.5 ug fLuc mRNA intravenously, 6 hours post-injection
Procedure, shortened: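 Read-out is total photon flux per region of interest, from whole-body IVIS images taken 10 minutes after IP D-luciferin (30 mg/mL, 10 μL/g) and from excised organs. Female Balb/c mice aged 6-8 weeks received 2.5 ug fLuc mRNA Nutshells intravenously 6 hours before imaging.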

hEPO = assay: Quantification of hEPO in serum after IV injection of mRNA (Human EPO ELISA); format: in vivo; conditions: Balb/c mice, 2.5 μg mRNA IV, serum after 6 hours
Procedure, shortened: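 Balb/c mice received 2.5 μg mRNA encoding human EPO by IV injection; serum was collected after 6 hours. hEPO was measured by sandwich ELISA (biotin-conjugate, streptavidin-HRP, TMB, A450) against kit standards (mIU/mL) and an external standard (ng/mL), with values interpolated and corrected for dilution.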

[2] = Peptoid quantity remaining in liver by HPLC-TOF mass spectrometry; format: in vivo; conditions: liver homogenate
Procedure, shortened: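 Whole liver weighed; 20 mg tissue bead-homogenized in IPA/MeOH (8/2) with internal standard, centrifuged, supernatant run on BEH C8 HPLC-TOF MS. Peptoid concentration derived from linear calibration curve (0.2-50 μg/g) prepared in spiked untreated liver.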

luciferase = assay: Luciferase expression after local (intramuscular or subcutaneous) administration of mRNA; format: in vivo; conditions: mRNA 0.01 mpk, 6 hours; for IM Flux: intramuscular; for SC Flux: subcutaneous
Procedure, shortened: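 Bioluminescence read 6 hours after fLuc mRNA dosing (peptoid Nutshells; 0.01 mpk S.C. or I.M., 0.1 mpk intratumoral) in female Balb/c mice aged 6-8 weeks. D-luciferin injected IP, whole-body imaging after 10 minutes, then organ imaging; total photon flux per region of interest.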

[3] = DLS in PBS, peptoid:DSPC:Cholesterol:DMG-PEG2000 weight ratio 20:1.79:7.16:1.84, mRNA

Row | SMILES | PDI [1, 3] | Particle Size [1, 3] [nm] | Particle Size ([1]; formulation recipe D22) [nm] | mean percent encapsulation of RNA (mRNA) [%] | % Encapsulation (mRNA; formulation recipe D22) [%] | Total Flux (luciferase expression) (firefly luciferase; formulation recipe D22) [p/s] | Total Flux (firefly luciferase) [p/s] | hEPO (hEPO) [ng/mL] | % of injected dose remaining in liver [2] | IM Flux (luciferase) [p/s] | SC Flux (luciferase) [p/s] | other results
1 | CCCCCCCCCCCC(=O)OCCCN(CC(=O)N(CC(N)=O)CC(CC)CCCC)C(=O)CN(CCCCCCCC)C(=O)CN(CC(CC)CCCC)C(=O)CN(CCCOC(=O)CCCCCCCCCCC)C(=O)CN(CCCCCCCC)C(=O)CN(C=O)CCCN1CCOCC1 (centres unmarked) [Compound 74] (For-[Gly(N-3-morpholinopropyl)][N(octyl)Gly][N(3-lauroyloxypropyl)Gly][N(2-ethylhexyl)Gly][N(octyl)Gly][N(3-lauroyloxypropyl)Gly][N(2-ethylhexyl)Gly]-NH2) | 0.151 | 87.1 | 87.1 | 67.6 | 67.6 | 1.96E+09 | 1.96E+09 | 354 | bdl | 4.87E+07 | 2.11E+08 | Particle Size ([1]; formulation recipe O5): 70.1 nm; Particle Size ([1]; formulation recipe O8): 71.7 nm; % Encapsulation (mRNA; formulation recipe O5): 90.4%; % Encapsulation (mRNA; formulation recipe O8): 91.5%; Total Flux (luciferase expression) (firefly luciferase; formulation recipe O5): 1.92E+09 p/s; Total Flux (luciferase expression) (firefly luciferase; formulation recipe O8): 3.39E+09 p/s
2 | CCCCCCCCCC(=O)OCCN(CC(=O)N(CCOC(=O)CCCCCCCCC)CC(=O)N(CC(=O)N(CCOC(=O)CCCCCCCCC)CC(=O)N(CCOC(=O)CCCCCCCCC)CC(=O)N(CC(N)=O)CC(CC)CCCC)CC(CC)CCCC)C(=O)CN(C=O)CCCN1CCOCC1 (centres unmarked) [Compound 76] (For-[Gly(N-3-morpholinopropyl)][N(2-decanoyloxyethyl)Gly][N(2-decanoyloxyethyl)Gly][N(2-ethylhexyl)Gly][N(2-decanoyloxyethyl)Gly][N(2-decanoyloxyethyl)Gly][N(2-ethylhexyl)Gly]-NH2) | 0.095 | 75.4 | 75.4 | 56.4 | 56.4 | 5.54E+09 | 5.54E+09 | 2140 | 7.34% | 1.70E+08 | 8.95E+07 | Particle Size ([1]; formulation recipe R1): 66.0 nm; Particle Size ([1]; formulation recipe R5): 67.2 nm; Particle Size ([1]; formulation recipe R6): 74.4 nm; Particle Size ([1]; formulation recipe R7): 75.3 nm; % Encapsulation (mRNA; formulation recipe R1): 82.7%; % Encapsulation (mRNA; formulation recipe R5): 88.1%; % Encapsulation (mRNA; formulation recipe R6): 87.6%; % Encapsulation (mRNA; formulation recipe R7): 79.9%; Total Flux (luciferase expression) (firefly luciferase; formulation recipe R1): 5.94E+08 p/s; Total Flux (luciferase expression) (firefly luciferase; formulation recipe R5): 1.00E+09 p/s; Total Flux (luciferase expression) (firefly luciferase; formulation recipe R6): 2.28E+09 p/s; Total Flux (luciferase expression) (firefly luciferase; formulation recipe R7): 4.00E+09 p/s
3 | CCCCCCCCCC(=O)OCCN(CC(=O)N(CCOC(=O)CCCCCCCCC)CC(=O)N(CC(=O)N(CCOC(=O)CCCCCCCCC)CC(=O)N(CCOC(=O)CCCCCCCCC)CC(=O)N(CC(N)=O)CC(CC)CCCC)CC(CC)CCCC)C(=O)CNCCCn1ccnc1 (centres unmarked) [Compound 79] (H-[N(3-imidazol-1-ylpropyl)Gly][N(2-decanoyloxyethyl)Gly][N(2-decanoyloxyethyl)Gly][N(2-ethylhexyl)Gly][N(2-decanoyloxyethyl)Gly][N(2-decanoyloxyethyl)Gly][N(2-ethylhexyl)Gly]-NH2) | 0.108 | 61.0 |  | 97.5 |  |  | 1.60E+09 | 320 | 19.72% | 1.31E+08 | 1.59E+08 | 
4 | CCCCCCCCCCCC(=O)OCCCN(CC(=O)N(CC(=O)N(CCCN1CCOCC1)CC(=O)N(CC(=O)N(CCCOC(=O)CCCCCCCCCCC)CC(=O)N(CC(N)=O)CC(CC)CCCC)CC(CC)CCCC)CC(CC)CCCC)C(=O)CN(C=O)CC(CC)CCCC (centres unmarked) [Compound 80] (For-[N(2-ethylhexyl)Gly][N(3-lauroyloxypropyl)Gly][N(2-ethylhexyl)Gly][Gly(N-3-morpholinopropyl)][N(2-ethylhexyl)Gly][N(3-lauroyloxypropyl)Gly][N(2-ethylhexyl)Gly]-NH2) | 0.109 | 78.1 | 78.1 | 65.7 | 65.7 | 3.74E+09 | 3.74E+09 | 481 | 13.58% | 2.20E+08 | 4.16E+08 | Particle Size ([1]; formulation recipe O1): 68.2 nm; Particle Size ([1]; formulation recipe O5): 68.5 nm; % Encapsulation (mRNA; formulation recipe O1): 80.5%; % Encapsulation (mRNA; formulation recipe O5): 82.6%; Total Flux (luciferase expression) (firefly luciferase; formulation recipe O1): 2.74E+09 p/s; Total Flux (luciferase expression) (firefly luciferase; formulation recipe O5): 2.71E+09 p/s
5 | CCCCCCCCCCCC(=O)OCCCN(CC(=O)N(CC(=O)N(CCCn1ccnc1)CC(=O)N(CC(=O)N(CCCOC(=O)CCCCCCCCCCC)CC(=O)N(CC(N)=O)CC(CC)CCCC)CC(CC)CCCC)CC(CC)CCCC)C(=O)CN(C=O)CC(CC)CCCC (centres unmarked) [Compound 82] (For-[N(2-ethylhexyl)Gly][N(3-lauroyloxypropyl)Gly][N(2-ethylhexyl)Gly][N(3-imidazol-1-ylpropyl)Gly][N(2-ethylhexyl)Gly][N(3-lauroyloxypropyl)Gly][N(2-ethylhexyl)Gly]-NH2) | 0.163 | 81.5 | 81.5 | 70.7 | 70.7 | 2.62E+09 | 2.62E+09 | 600 | 15.77% | 1.24E+08 | 1.41E+08 | Particle Size ([1]; formulation recipe F2): 65.9 nm; Particle Size ([1]; formulation recipe X29): 72.1 nm; Particle Size ([1]; formulation recipe X145): 80.7 nm; % Encapsulation (mRNA; formulation recipe F2): 75.3%; % Encapsulation (mRNA; formulation recipe X29): 62.0%; % Encapsulation (mRNA; formulation recipe X145): 70.9%; Total Flux (luciferase expression) (firefly luciferase; formulation recipe F2): 4.10E+08 p/s; Total Flux (luciferase expression) (firefly luciferase; formulation recipe X29): 2.83E+09 p/s; Total Flux (luciferase expression) (firefly luciferase; formulation recipe X145): 5.70E+09 p/s
6 | CCCCCCCCCCCCN(C=O)CC(=O)N(CCCOC(=O)CCCCCCCCC)CC(=O)N(CC(=O)N(CCCN1CCOCC1)CC(=O)N(CC(=O)N(CCCOC(=O)CCCCCCCCC)CC(=O)N(CCCCCCCCCCCC)CC(N)=O)CC(CC)CCCC)CC(CC)CCCC (centres unmarked) [Compound 88] (For-[Gly(N-dodecyl)][Gly(N-(3-decanoyloxypropyl))][N(2-ethylhexyl)Gly][Gly(N-3-morpholinopropyl)][N(2-ethylhexyl)Gly][Gly(N-(3-decanoyloxypropyl))][Gly(N-dodecyl)]-NH2) | 0.118 | 73.1 |  | 7.4 |  |  | 3.77E+08 | 109 | 16.59% | 4.29E+07 | 6.88E+07 | Particle Size ([1]; formulation recipe F2): 72.4 nm; % Encapsulation (mRNA; formulation recipe F2): 71.8%; Total Flux (luciferase expression) (firefly luciferase; formulation recipe F2): 1.59E+09 p/s
7 | CCCCCCCCCCCC(=O)OCCCN(CC(=O)N(CC(=O)N(CC(=O)N(CCCn1ccnc1)CC(=O)N(CC(=O)N(CC(=O)N(CCCOC(=O)CCCCCCCCCCC)CC(=O)N(CC(N)=O)CC(CC)CCCC)Cc1ccco1)CC(CC)CCCC)CC(CC)CCCC)Cc1ccco1)C(=O)CN(C=O)CC(CC)CCCC (centres unmarked) [Compound 100] | 0.103 | 109.3 |  | 68.4 |  |  | 2.32E+08 | 59.4 | 19.76% | 4.86E+07 | 6.16E+07 | 

From patent US20260373248A1, “DEGRADABLE PEPTOIDS” (Medici Therapeutics, Inc., priority 2023, published 2026)
